Laboratory results reported in US7402605B2, “8-azaprostaglandin derivative compounds and drugs containing the compounds as the active ingredient” (Ono Pharmaceutical Co., Ltd., priority 2002, dated 2008).

Molecular target: T1, mouse EP2 receptor (Mus musculus, UniProt Q62053)
T1 construct: expressed in transfected cells; host or cells: CHO cells (membrane fraction)
Experiment: Receptor-binding experiment (3H-PGE2 displacement) using membranes of CHO cells expressing prostanoid receptor sub-type EP2
Conditions: inhibition of 3H-PGE2 (2.5 nM) binding, CHO cell membrane fraction, room temperature 1 hour, pH 6.0; Ki=IC50/(1+([C]/Kd))
Protocol: (i) Experiment for Receptor-Binding Using Cells Which Express Prostanoid Receptor Sub-Types
According to the method of Sugimoto et al. (J. Biol. Chem., 267, 6463-6466 (1992)), CHO cells which expressed prostanoid receptor sub-types (murine EP1, EP2, EP3α, and EP4, respectively) were prepared and used as membrane authentic samples.
A reaction solution (200 μl) containing the prepared membrane fraction (0.5 mg/ml) and ^3H-PGE2 was incubated at room temperature for 1 hour. The reaction was terminated with ice cold buffer (3 ml), and the reaction mixture was filtered under suction through a glass filter (GF/B), on which the binding ^3H-PGE2 was trapped, and the binding radioactivity was measured by means of a liquid scintillator.
The Kd value was obtained from the Scatchard plots [Ann. N.Y. Acad. Sci., 51, 660 (1949)]. Non-specific binding was obtained as the binding in the presence of an excess amount (2.5 μM) of unlabelled PGE2. Measurement of the binding inhibition for ^3H-PGE2 with the compounds of the present invention was performed by adding ^3H-PGE2 (2.5 nM) and a series of concentrations of the compound of the present invention. In this reaction, the following buffer was used in all cases. • Buffer: 10 mM potassium phosphate (pH 6.0), 1 mM EDTA, 10 mM MgCl2, and 0.1M NaCl.
Dissociation constant Ki (μM) of each compound was calculated from the following equation. […]

T1 sequence (Q62053 whole entry): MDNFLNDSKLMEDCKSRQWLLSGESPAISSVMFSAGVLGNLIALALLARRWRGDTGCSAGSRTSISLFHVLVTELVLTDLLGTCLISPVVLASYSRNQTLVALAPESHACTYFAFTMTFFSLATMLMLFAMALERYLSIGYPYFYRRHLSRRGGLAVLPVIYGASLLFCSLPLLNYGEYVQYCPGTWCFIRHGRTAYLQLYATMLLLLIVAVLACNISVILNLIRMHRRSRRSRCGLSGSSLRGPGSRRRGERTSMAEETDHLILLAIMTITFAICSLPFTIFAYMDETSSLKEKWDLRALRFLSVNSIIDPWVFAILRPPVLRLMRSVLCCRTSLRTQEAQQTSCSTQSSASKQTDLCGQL

For `CCCCc1ccc(C2CCC(=O)N2CCSc2nc(C(=O)O)cs2)cc1` (stereo not shown) [Example 4(1), 2-(2-(2-(4-n-butylphenyl)-5-oxopyrrolidin-1-yl)ethylthio)thiazole-4-carboxylic acid], which Ki is on record?
Its Ki is 14 nM.
